Molecular target: human recombinant P2X7 receptor (Homo sapiens (Human), UniProt Q99572)
Assay: YO-PRO1 uptake assay in HEK cells stably expressing human P2X7
Assay type: cell-based
Settings: HEK-293 cells expressing human recombinant P2X7; 250 μM ATP, 90 minutes; YO-PRO-1 fluorescence; read-out: IC50 (antagonistic activity with respect to the P2X7 receptor)
Protocol: Cell Line Generation and YO-PRO Assay Cell line generation was performed in general according to established molecular cloning protocols. Specifically, RNA was extracted from human whole blood using the Qiagen RNeasy kit (Qiagen, CH) according to the manufacturer's instructions. […] BC011913) was amplified with the following primers: [NT] and [NT] The amplified sequence was subsequently ligated into a pcDNA3.1 (+) NotI, NheI digested plasmid. Human embryonic kidney (HEK) cells (ATCC CRL-1573, Manassas, Va., USA) were transfected with the pcDNA3.1 (+). hP2X7 plasmid using lipofectamine 2000 (Invitrogen AG, CH) according to the manufacturer's instructions. Following a 24 h exposure to DNA, cells were trypsinized and re-seeded at low density in the presence of 250 μg Geneticin. Geneticin resistant cells were then selected during two consecutive rounds of cloning by serial limiting dilution with visual inspection. […] Specific cell clones were chosen based on RNA and protein expression. […] Cells were grown to confluency in adherent culture at 37° C. in a humidified 5% CO2 incubator (split 1⁄5 every 3-4 days with DMEM, 10% FCS, 1% Penicillin/Streptomycin, 250 μg/ml Geneticin). […] Medium was removed from cells and 50 μl of assay buffer containing 0.5 μM YO-[…] was added into the wells. Solutions of antagonist compounds were prepared by serial dilutions of a 10 mM DMSO solution of the antagonist into PBS using a BioMek (Beckman Coulter). Each concentration was performed in duplicate. […] The cells were incubated with the antagonists of the present invention together with ATP at a final concentration of 250 μM for 90 minutes. During this time period, four time points were taken. Each time point comprised the average of several measurements made within a few seconds. Fluorescence was measured in the FLIPR tetra (Molecular Devices) using the filters appropriate for YO-[…] fluorescence (excitation 485/20, emission 530/25). The FLIPR tetra was equipped with Molecular Devices Screen Works system control software to define and run experimental protocols. […] For IC50 measurements the maximum intensity is plotted against the concentration of compound to determine IC50 values.

Chain of human recombinant P2X7 receptor (Q99572 whole entry): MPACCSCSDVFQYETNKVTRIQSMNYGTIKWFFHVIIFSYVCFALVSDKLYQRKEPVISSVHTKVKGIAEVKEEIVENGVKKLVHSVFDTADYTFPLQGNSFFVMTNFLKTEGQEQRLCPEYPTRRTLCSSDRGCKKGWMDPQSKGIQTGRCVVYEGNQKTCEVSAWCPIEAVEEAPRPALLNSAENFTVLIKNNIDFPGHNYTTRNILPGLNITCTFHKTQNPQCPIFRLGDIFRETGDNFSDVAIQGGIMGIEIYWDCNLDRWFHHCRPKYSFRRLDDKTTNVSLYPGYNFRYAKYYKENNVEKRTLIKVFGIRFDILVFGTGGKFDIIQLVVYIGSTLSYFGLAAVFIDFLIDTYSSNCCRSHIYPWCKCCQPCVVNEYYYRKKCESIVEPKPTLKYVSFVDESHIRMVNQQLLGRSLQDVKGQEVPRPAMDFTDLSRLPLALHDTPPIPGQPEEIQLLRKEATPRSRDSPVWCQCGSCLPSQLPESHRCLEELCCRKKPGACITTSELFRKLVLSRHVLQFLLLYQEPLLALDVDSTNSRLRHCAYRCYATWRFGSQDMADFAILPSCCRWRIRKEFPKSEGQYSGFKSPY

Row | Structure (SMILES) | IC50
1 | O=C(NC(CO)C1CCCCCC1)C1COc2ncsc21 (centres unmarked) [Example 1, N-(1-cycloheptyl-2-hydroxyethyl)-5,6-dihydrofuro[2,3-d]thiazole-6-carboxamide] | 818 nM
2 | O=C(NCC1(c2ccc(Cl)nc2)CCCCC1)C1COc2ncsc21 (centres unmarked) [Example 2, N-((1-(6-chloropyridin-3-yl)cyclohexyl)methyl)-5,6-dihydrofuro[2,3-d]thiazole-6-carboxamide] | 28 nM
3 | Cc1ncc(C(CNC(=O)C2COc3ncsc32)N2CCC(F)(F)CC2)cn1 (centres unmarked) [Example 3, N-(2-(4,4-difluoropiperidin-1-yl)-2-(2-methylpyrimidin-5-yl)ethyl)-5,6-dihydrofuro[2,3-d]thiazole-6-carboxamide] | 2040 nM
4 | O=C(NCC(c1ccc(C(F)(F)F)nc1)N1CCOCC1)C1COc2ncsc21 (centres unmarked) [Example 4, N-(2-morpholino-2-(6-(trifluoromethyl)pyridin-3-yl)ethyl)-5,6-dihydrofuro[2,3-d]thiazole-6-carboxamide] | 332 nM
5 | O=C(N[C@H](CO)C1CCCCC1)C1CCc2ncsc21 (stereo partly drawn) [Example 5, N-((S)-1-cyclohexyl-2-hydroxyethyl)-5,6-dihydro-4H-cyclopenta[d]thiazole-6-carboxamide] | 272 nM
6 | Cc1ncc(C(CNC(=O)C2CCc3ncsc32)N2CCOCC2)cn1 (centres unmarked) [Example 6, N-(2-(2-methylpyrimidin-5-yl)-2-morpholinoethyl)-5,6-dihydro-4H-cyclopenta[d]thiazole-6-carboxamide] | 1370 nM
7 | Cc1ncc(C(CNC(=O)C2CCc3ncsc32)N2CCC(F)(F)CC2)cn1 (centres unmarked) [Example 7, N-(2-(4,4-difluoropiperidin-1-yl)-2-(2-methylpyrimidin-5-yl)ethyl)-5,6-dihydro-4H-cyclopenta[d]thiazole-6-carboxamide] | 478 nM
8 | O=C(N[C@H](CO)C1CCCCC1)C1CCOc2ncsc21 (stereo partly drawn) [Example 8, N-((S)-1-cyclohexyl-2-hydroxyethyl)-6,7-dihydro-5H-pyrano[2,3-d]thiazole-7-carboxamide] | 340 nM
9 | Cc1ncc(C(CNC(=O)C2CCOc3ncsc32)N2CCOCC2)cn1 (centres unmarked) [Example 9, N-(2-(2-methylpyrimidin-5-yl)-2-morpholinoethyl)-6,7-dihydro-5H-pyrano[2,3-d]thiazole-7-carboxamide] | 1430 nM
10 | O=C(NCC(c1ccc(Cl)nc1)N1CCC(F)(F)CC1)C1CCOc2ncsc21 (centres unmarked) [Example 10, N-(2-(6-chloropyridin-3-yl)-2-(4,4-difluoropiperidin-1-yl)ethyl)-6,7-dihydro-5H-pyrano[2,3-d]thiazole-7-carboxamide] | 74 nM
11 | C[C@@H](NC(=O)C1CCCc2ncsc21)C1CCCCC1 (stereo partly drawn) [Example 11, N-((R)-1-cyclohexylethyl)-4,5,6,7-tetrahydrobenzo[d]thiazole-7-carboxamide] | 60 nM
12 | O=C(N[C@H](CO)C1CCCCC1)C1CCCc2ncsc21 (stereo partly drawn) [Example 12, N-((S)-1-cyclohexyl-2-hydroxyethyl)-4,5,6,7-tetrahydrobenzo[d]thiazole-7-carboxamide] | 41 nM
13 | O=C(NCC1(c2ccc(Cl)nc2)CCCCC1)C1CCCc2ncsc21 (centres unmarked) [Example 13, N-((1-(6-chloropyridin-3-yl)cyclohexyl)methyl)-4,5,6,7-tetrahydrobenzo[d]thiazole-7-carboxamide] | 3.4 nM
14 | O=C(NCC1(c2ccc(Cl)nc2)CCC(F)(F)CC1)C1CCCc2ncsc21 (centres unmarked) [Example 14, N-((1-(6-chloropyridin-3-yl)-4,4-difluorocyclohexyl)methyl)-4,5,6,7-tetrahydrobenzo[d]thiazole-7-carboxamide] | 6.3 nM
15 | O=C(NCC(c1cnc(C(F)(F)F)nc1)N1CCOCC1)C1CCCc2ncsc21 (centres unmarked) [Example 15, N-(2-morpholino-2-(2-(trifluoromethyl)pyrimidin-5-yl)ethyl)-4,5,6,7-tetrahydrobenzo[d]thiazole-7-carboxamide] | 33 nM
16 | O=C(N[C@H](CO)C1CCCCC1)C1CCCCc2ncsc21 (stereo partly drawn) [Example 16, N-((S)-1-cyclohexyl-2-hydroxyethyl)-5,6,7,8-tetrahydro-4H-cyclohepta[d]thiazole-8-carboxamide] | 348 nM
17 | O=C(N[C@H](CO)C1CCCCC1)C1CCCCc2ncsc21 (stereo partly drawn) [Example 17, N-((S)-1-cyclohexyl-2-hydroxyethyl)-5,6,7,8-tetrahydro-4H-cyclohepta[d]thiazole-8-carboxamide] | 543 nM

Reference: US9388198B2, “Heterocyclic amide derivatives as P2X7 receptor antagonists” (ACTELION PHARMACEUTICALS LTD, priority 2014, dated 2016)
